Columns and labels:
[1] = refractive index (Na D-line) (dimensionless); xn = mol fraction of the nth substance listed; conditions: 101.3 kPa, Liquid, Standard Abbe refractometry
[2] = xn = mol fraction of the nth substance listed; conditions: 101.3 kPa, Liquid, Sing-around technique in a fixed-path interferometer
[3] = refractive index (Na D-line) (dimensionless); conditions: 101.33 kPa, Liquid, Standard Abbe refractometry
[4] = 101.3 kPa, Liquid, Sing-around technique in a fixed-path interferometer

C[N+](=O)[O-] [nitromethane] + ClC(Cl)Cl
Conditions | refractive index, 298.15 K | refractive index, 308.15 K | refractive index, 318.15 K | speed of sound, 298.15 K [m/s] | speed of sound, 308.15 K [m/s] | speed of sound, 318.15 K [m/s]
[1], x2 = 0 | 1.37951 | 1.37501 | 1.37016 | – | – | –
[1], x2 = 0.1197 | 1.39001 | 1.38474 | 1.37896 | – | – | –
[1], x2 = 0.1772 | 1.39474 | 1.38937 | 1.3835 | – | – | –
[1], x2 = 0.3007 | 1.40415 | 1.39828 | 1.39227 | – | – | –
[1], x2 = 0.4009 | 1.41107 | 1.40509 | 1.39897 | – | – | –
[1], x2 = 0.5 | 1.41742 | 1.41126 | 1.40531 | – | – | –
[1], x2 = 0.5978 | 1.42317 | 1.41698 | 1.41097 | – | – | –
[1], x2 = 0.7194 | 1.42971 | 1.42362 | 1.41741 | – | – | –
[1], x2 = 0.8607 | 1.4364 | 1.43035 | 1.42424 | – | – | –
[1], x2 = 0.9562 | 1.44032 | 1.43408 | 1.42786 | – | – | –
[2], x2 = 0 | – | – | – | 1321.3 | 1281.8 | 1242.4
[2], x2 = 0.1197 | – | – | – | 1253.7 | 1215.5 | 1177.5
[2], x2 = 0.1772 | – | – | – | 1225 | 1187.5 | 1150.1
[2], x2 = 0.3007 | – | – | – | 1171.2 | 1134.6 | 1098.1
[2], x2 = 0.4009 | – | – | – | 1133.6 | 1097.8 | 1062
[2], x2 = 0.5 | – | – | – | 1101.3 | 1065.9 | 1030.7
[2], x2 = 0.5978 | – | – | – | 1072.5 | 1037.7 | 1002.9
[2], x2 = 0.7194 | – | – | – | 1041.5 | 1007.1 | 972.74
[2], x2 = 0.8607 | – | – | – | 1010.4 | 976.31 | 942.3
[2], x2 = 0.9562 | – | – | – | 993.45 | 959.49 | 925.65

C[N+](=O)[O-] [nitromethane] + ClCCCCCl
x2 = 0
Conditions | refractive index, 298.15 K | refractive index, 308.15 K | refractive index, 318.15 K | speed of sound, 298.15 K [m/s] | speed of sound, 308.15 K [m/s] | speed of sound, 318.15 K [m/s]
[1] | 1.37955 | 1.37482 | 1.37001 | – | – | –
[2] | – | – | – | 1321.5 | 1281.9 | 1242.5

C[N+](=O)[O-] [nitromethane] + ClCCCCl
x2 = 0
Conditions | refractive index, 298.15 K | refractive index, 308.15 K | refractive index, 318.15 K | speed of sound, 298.15 K [m/s] | speed of sound, 308.15 K [m/s] | speed of sound, 318.15 K [m/s]
[1] | 1.37948 | 1.3748 | 1.37007 | – | – | –
[2] | – | – | – | 1321.2 | 1281.8 | 1242.5

C[N+](=O)[O-] [nitromethane] + ClCCCl
Conditions | refractive index, 298.15 K | refractive index, 308.15 K | refractive index, 318.15 K | speed of sound, 298.15 K [m/s] | speed of sound, 308.15 K [m/s] | speed of sound, 318.15 K [m/s]
[1], x2 = 0 | 1.37952 | 1.37482 | 1.37009 | – | – | –
[1], x2 = 0.1132 | 1.38846 | 1.38351 | 1.37845 | – | – | –
[1], x2 = 0.2235 | 1.39669 | 1.39148 | 1.38609 | – | – | –
[1], x2 = 0.3249 | 1.40379 | 1.39839 | 1.39284 | – | – | –
[1], x2 = 0.4672 | 1.41318 | 1.40777 | 1.40213 | – | – | –
[1], x2 = 0.5586 | 1.4188 | 1.41343 | 1.40781 | – | – | –
[1], x2 = 0.6264 | 1.42279 | 1.41742 | 1.41184 | – | – | –
[1], x2 = 0.7349 | 1.42888 | 1.42345 | 1.41797 | – | – | –
[1], x2 = 0.857 | 1.43522 | 1.42981 | 1.42424 | – | – | –
[1], x2 = 0.923 | 1.43844 | 1.43304 | 1.42748 | – | – | –
[2], x2 = 0 | – | – | – | 1321.2 | 1281.8 | 1242.5
[2], x2 = 0.0878 | – | – | – | 1298.2 | 1259 | 1220.1
[2], x2 = 0.1939 | – | – | – | 1279 | 1240.3 | 1201.6
[2], x2 = 0.2938 | – | – | – | 1264 | 1225.5 | 1187
[2], x2 = 0.3998 | – | – | – | 1246.1 | 1207.7 | 1169.4
[2], x2 = 0.5028 | – | – | – | 1236 | 1197.7 | 1159.5
[2], x2 = 0.6154 | – | – | – | 1229 | 1190.8 | 1152.5
[2], x2 = 0.7207 | – | – | – | 1218.7 | 1180.5 | 1142.2
[2], x2 = 0.8326 | – | – | – | 1207.6 | 1169.3 | 1131.1
[2], x2 = 0.9404 | – | – | – | 1201.6 | 1163.3 | 1125

ClC(Cl)Cl [trichloromethane]
Conditions | refractive index, 298.15 K | refractive index, 308.15 K | refractive index, 318.15 K | speed of sound, 298.15 K [m/s] | speed of sound, 308.15 K [m/s] | speed of sound, 318.15 K [m/s]
[3] | 1.44209 | 1.43598 | 1.42986 | – | – | –
[4] | – | – | – | 984.42 | 950.45 | 916.63

ClC(Cl)Cl [trichloromethane] + C[N+](=O)[O-]
x1 = 1
Conditions | refractive index, 298.15 K | refractive index, 308.15 K | refractive index, 318.15 K | speed of sound, 298.15 K [m/s] | speed of sound, 308.15 K [m/s] | speed of sound, 318.15 K [m/s]
[1] | 1.44209 | 1.43598 | 1.42986 | – | – | –
[2] | – | – | – | 984.42 | 950.45 | 916.63
